Results from patent US11878970B2, “Allosteric chromenone inhibitors of phosphoinositide 3-kinase (PI3K) for the treatment of disease” (Petra Pharma Corporation, priority 2021, dated 2024).
pIC50: −log10 of the molar value.

Key:
[1] = biological target: T1, PI3K-α (PIK3CA) wild-type (WT), p110α/p85α complex (Homo sapiens, UniProt P42336); assay: PI3K-alpha kinase (PIK3CA) biochemical activity, ADP-Glo, wild-type
T1 construct: Recombinant, catalytically active human full length PIK3KA Wild-type and H1047R mutant; 6×His (N); purchased EMD Millipore Sigma 14-602M
Outline: (§1)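 ADP formation measured by ADP-Glo luminescence after reaction at 27 °C to about 10% ATP turnover, using 20 uM ATP, 50 uM PIP2diC8 or soy PI lipid, HEPES pH 7.4 with MgCl2. Enzyme (1-5 nM WT or H1047R p110α/p85α) and compound preincubated 1 h first; 10-point 1:3 curves fitted four-parameter for IC50.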

[2] = biological target: T2, PI3K-α (PIK3CA) H1047R mutant, p110α/p85α complex (Homo sapiens, UniProt P42336, H1047R); assay: PI3K-alpha kinase (PIK3CA) biochemical activity, ADP-Glo, H1047R mutant
T2 construct: Recombinant, catalytically active human full length PIK3KA Wild-type and H1047R mutant; 6×His (N); purchased EMD Millipore Sigma 14-792M
Outline: as §1

[3] = biological target: PI3K-α (PIK3CA) in MDA-MB-453 cells (Homo sapiens, UniProt P42336); assay: PI3K-alpha kinase (PIK3CA) in vitro cell based assay, MDA-MB-453 cells, SureFire Ultra AlphaLisa; settings: read-out: PI3K-α (PIK3CA) in vitro cell based assay IC50
Outline: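 Cells treated 3 h in serum-free MEM with 1 μg/mL insulin, 10-point 1:3 series in 0.3% DMSO, then lysed for SureFire Ultra AlphaLisa read-out. Inhibition normalized to DMSO (max) and 1 μM GDC-0032 (min); duplicate averages fitted by 4-parameter logistic for relative IC50.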

[4] = PIP2diC8 lipid substrate (footnote 1)

T2 sequence (P42336 whole entry H1047R): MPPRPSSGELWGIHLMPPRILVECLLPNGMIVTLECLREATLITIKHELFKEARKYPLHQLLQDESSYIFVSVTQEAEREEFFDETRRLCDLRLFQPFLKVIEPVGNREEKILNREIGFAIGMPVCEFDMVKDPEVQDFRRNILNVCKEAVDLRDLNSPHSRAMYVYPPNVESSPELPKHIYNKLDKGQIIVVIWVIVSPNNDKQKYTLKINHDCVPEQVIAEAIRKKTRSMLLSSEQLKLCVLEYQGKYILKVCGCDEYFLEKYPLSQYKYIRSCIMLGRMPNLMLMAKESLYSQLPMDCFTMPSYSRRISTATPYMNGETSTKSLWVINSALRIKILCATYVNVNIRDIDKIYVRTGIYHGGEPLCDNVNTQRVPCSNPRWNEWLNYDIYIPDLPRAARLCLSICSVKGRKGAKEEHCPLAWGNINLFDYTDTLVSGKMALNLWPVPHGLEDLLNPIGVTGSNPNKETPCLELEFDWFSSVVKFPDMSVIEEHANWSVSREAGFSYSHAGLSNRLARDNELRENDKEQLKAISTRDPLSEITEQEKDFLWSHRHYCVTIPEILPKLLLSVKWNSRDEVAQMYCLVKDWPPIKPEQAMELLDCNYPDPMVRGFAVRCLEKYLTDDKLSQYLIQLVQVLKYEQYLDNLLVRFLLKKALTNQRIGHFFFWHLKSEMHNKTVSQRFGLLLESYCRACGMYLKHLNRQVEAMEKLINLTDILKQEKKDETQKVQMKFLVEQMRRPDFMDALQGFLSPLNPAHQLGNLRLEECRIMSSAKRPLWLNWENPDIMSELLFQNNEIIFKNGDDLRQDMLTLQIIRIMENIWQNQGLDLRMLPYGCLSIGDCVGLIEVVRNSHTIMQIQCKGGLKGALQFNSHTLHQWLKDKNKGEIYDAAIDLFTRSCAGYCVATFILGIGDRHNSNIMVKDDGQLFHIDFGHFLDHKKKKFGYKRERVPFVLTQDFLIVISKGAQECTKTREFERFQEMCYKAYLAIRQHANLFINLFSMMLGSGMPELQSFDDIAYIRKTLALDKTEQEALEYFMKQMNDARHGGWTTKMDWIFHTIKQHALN
T2 sequence (P27986 whole entry partner): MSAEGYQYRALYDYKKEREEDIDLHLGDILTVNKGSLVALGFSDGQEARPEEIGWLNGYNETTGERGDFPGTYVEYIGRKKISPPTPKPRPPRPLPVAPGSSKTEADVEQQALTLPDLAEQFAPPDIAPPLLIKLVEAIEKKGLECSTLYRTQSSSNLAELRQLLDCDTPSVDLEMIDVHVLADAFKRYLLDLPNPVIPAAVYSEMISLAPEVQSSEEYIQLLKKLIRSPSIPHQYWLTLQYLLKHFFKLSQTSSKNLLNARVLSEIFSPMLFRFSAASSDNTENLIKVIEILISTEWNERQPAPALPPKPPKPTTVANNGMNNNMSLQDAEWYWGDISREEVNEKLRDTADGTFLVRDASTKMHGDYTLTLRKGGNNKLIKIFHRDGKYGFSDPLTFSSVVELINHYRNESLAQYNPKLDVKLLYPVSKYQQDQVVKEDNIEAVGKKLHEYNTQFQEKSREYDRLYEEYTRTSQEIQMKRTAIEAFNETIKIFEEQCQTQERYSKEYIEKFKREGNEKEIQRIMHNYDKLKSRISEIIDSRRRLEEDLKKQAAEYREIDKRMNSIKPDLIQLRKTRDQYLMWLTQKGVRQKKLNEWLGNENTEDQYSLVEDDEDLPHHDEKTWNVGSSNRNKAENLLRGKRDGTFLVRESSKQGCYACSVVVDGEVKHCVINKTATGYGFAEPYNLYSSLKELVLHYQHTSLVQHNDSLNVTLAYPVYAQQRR
PI3K-α (PIK3CA) in MDA-MB-453 cells, sequence (P27986 2-724): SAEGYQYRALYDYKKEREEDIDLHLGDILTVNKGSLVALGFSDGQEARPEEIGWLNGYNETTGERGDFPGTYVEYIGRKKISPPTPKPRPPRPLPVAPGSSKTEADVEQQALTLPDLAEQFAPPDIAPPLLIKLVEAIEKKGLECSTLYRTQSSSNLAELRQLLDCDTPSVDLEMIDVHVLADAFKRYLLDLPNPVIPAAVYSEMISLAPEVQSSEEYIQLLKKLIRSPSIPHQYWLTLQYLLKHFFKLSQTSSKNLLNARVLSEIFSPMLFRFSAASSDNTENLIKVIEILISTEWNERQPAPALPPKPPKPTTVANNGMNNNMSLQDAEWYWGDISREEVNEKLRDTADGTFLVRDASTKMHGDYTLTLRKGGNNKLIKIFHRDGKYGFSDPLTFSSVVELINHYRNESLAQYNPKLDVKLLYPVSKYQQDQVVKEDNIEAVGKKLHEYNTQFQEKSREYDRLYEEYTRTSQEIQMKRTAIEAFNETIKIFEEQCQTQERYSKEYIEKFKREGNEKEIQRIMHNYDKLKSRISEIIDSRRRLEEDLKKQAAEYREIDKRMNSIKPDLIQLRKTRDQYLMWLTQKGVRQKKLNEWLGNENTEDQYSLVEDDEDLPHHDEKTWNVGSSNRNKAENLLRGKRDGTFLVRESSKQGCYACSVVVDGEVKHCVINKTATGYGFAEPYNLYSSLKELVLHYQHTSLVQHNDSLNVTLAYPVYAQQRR
PI3K-α (PIK3CA) in MDA-MB-453 cells, sequence (P42336 whole entry): as the sequence (P42336 whole entry H1047R) above, with R1047H counted along it

Row | pIC50 ([1]; Soy PI lipid substrate) | pIC50 ([2]; Soy PI lipid substrate) | pIC50 [3] | Structure (SMILES) | pIC50 [1, 4] | pIC50 [2, 4]
1 | 6.00 to 6.30 | > 6.30 | 7.00 to 7.30 | Cc1cc(C(C)Nc2ccccc2C(=O)O)c2oc(-c3ccc4nc(C#N)ccc4c3)cc(=O)c2c1 (single isomer, unassigned) [Example 207, 2-[1-[2-(2-Cyano-6-quinolyl)-6-methyl-4-oxo-chromen-8-yl]ethylamino]benzoic acid] |  | 
2 | 5.30 to 6.00 | 5.30 to 6.00 | < 6.30 | Cc1cc(C(C)Nc2ccc(Cl)nc2C(=O)O)c2oc(-c3ccc4c(cnn4C)c3)cc(=O)c2c1 (single isomer, unassigned) [Example 217, 6-Chloro-3-[1-[6-methyl-2-(1-methylindazol-5-yl)-4-oxo-chromen-8-yl]ethylamino]pyridine-2-carboxylic acid] |  | 
3 | > 6.30 | > 6.30 | > 7.30 | Cc1cc(C(C)Nc2ccc(Cl)nc2C(=O)O)c2oc(-c3ccc4c(cnn4C)c3)cc(=O)c2c1 (single isomer, unassigned) [Example 218, 6-Chloro-3-[1-[6-methyl-2-(1-methylindazol-5-yl)-4-oxo-chromen-8-yl]ethylamino]pyridine-2-carboxylic acid] |  | 
4 | 5.30 to 6.00 | 5.30 to 6.00 | < 6.30 | Cc1cc(C(C)Nc2ccc(Cl)nc2C(=O)O)c2oc(-c3ccc4cnn(C)c4c3)cc(=O)c2c1 (single isomer, unassigned) [Example 219, 6-Chloro-3-[1-[6-methyl-2-(1-methylindazol-6-yl)-4-oxo-chromen-8-yl]ethylamino]pyridine-2-carboxylic acid] |  | 
5 | > 6.30 | > 6.30 | > 7.30 | Cc1cc(C(C)Nc2ccc(Cl)nc2C(=O)O)c2oc(-c3ccc4cnn(C)c4c3)cc(=O)c2c1 (single isomer, unassigned) [Example 220, 6-Chloro-3-[1-[6-methyl-2-(1-methylindazol-6-yl)-4-oxo-chromen-8-yl]ethylamino]pyridine-2-carboxylic acid] |  | 
6 | 6.00 to 6.30 | 5.30 to 6.00 | < 6.30 | Cc1cc(C(C)Nc2cccc(F)c2C(=O)O)c2oc(-c3ccc4cnn(C)c4c3)cc(=O)c2c1 (single isomer, unassigned) [Example 221, 2-fluoro-6-[1-[6-methyl-2-(1-methylindazol-6-yl)-4-oxo-chromen-8-yl]ethylamino]benzoic acid] |  | 
7 | 6.00 to 6.30 | > 6.30 | 6.30 to 7.00 | Cc1cc(C(C)Nc2cccc(F)c2C(=O)O)c2oc(-c3ccc4cnn(C)c4c3)cc(=O)c2c1 (single isomer, unassigned) [Example 222, 2-fluoro-6-[1-[6-methyl-2-(1-methylindazol-6-yl)-4-oxo-chromen-8-yl]ethylamino]benzoic acid] |  | 
8 | 6.00 to 6.30 | > 6.30 | > 7.30 | Cc1cc(C(C)Nc2ccc(Cl)nc2C(=O)O)c2oc(-c3cc4ccccc4[nH]3)cc(=O)c2c1 (single isomer, unassigned) [Example 223, 6-Chloro-3-[1-[2-(1H-indol-2-yl)-6-methyl-4-oxo-chromen-8-yl]ethylamino]pyridine-2-carboxylic acid] |  | 
9 | > 6.30 | > 6.30 | > 7.30 | Cc1cc(C(C)Nc2ccc(Cl)nc2C(=O)O)c2oc(-c3ccc4c(c3)c(C)nn4C)cc(=O)c2c1 (single isomer, unassigned) [Example 224, 6-Chloro-3-[1-[2-(1,3-dimethylindazol-5-yl)-6-methyl-4-oxo-chromen-8-yl]ethylamino]pyridine-2-carboxylic acid] |  | 
10 | 5.30 to 6.00 | 6.00 to 6.30 | > 7.30 | Cc1cc(C(C)Nc2ccccc2C(=O)O)c2oc(-c3ccc4ncccc4n3)cc(=O)c2c1 (single isomer, unassigned) [Example 252, 2-[1-[6-Methyl-2-(1,5-naphthyridin-2-yl)-4-oxo-chromen-8-yl]ethylamino]benzoic acid] |  | 
11 |  |  | < 6.30 | Cc1cc(C(C)Nc2ccccc2C(=O)O)c2oc(-c3cnc4nn(C)cc4c3)cc(=O)c2c1 (stereo not drawn) [Example 9, 2-[1-[6-Methyl-2-(2-methylpyrazolo[3,4-b]pyridin-5-yl)-4-oxo-chromen-8-yl]ethylamino]benzoic acid] | 6.00 to 6.30 | > 6.30
12 | 6.00 to 6.30 | > 6.30 | 7.00 to 7.30 | C[C@@H](Nc1ccc(Cl)nc1C(=O)O)c1cc(C(F)(F)F)cc2c(=O)cc(-c3ccc4nn(C)cc4c3)oc12 [Example 169, 6-Chloro-3-[[(1R)-1-[2-(2-methylindazol-5-yl)-4-oxo-6-(trifluoromethyl)chromen-8-yl]ethyl]amino]pyridine-2-carboxylic acid] |  | 
13 | 6.00 to 6.30 | > 6.30 | 7.00 to 7.30 | Cc1cc([C@@H](C)Nc2ccc(F)c(F)c2C(=O)O)c2oc(-c3ccc4nn(C)cc4c3)c(C)c(=O)c2c1 [Example 204, 6-[[(1R)-1-[3,6-Dimethyl-2-(2-methylindazol-5-yl)-4-oxo-chromen-8-yl]ethyl]amino]-2,3-difluoro-benzoic acid] |  | 
14 | < 5.00 | 5.30 to 6.00 | 7.00 to 7.30 | Cc1cc([C@@H](C)Nc2cccnc2C(=O)O)c2oc(-c3nn(C)c4ccccc34)c(C)c(=O)c2c1 [Example 205, 3-[[(1R)-1-[3,6-Dimethyl-2-(1-methylindazol-3-yl)-4-oxo-chromen-8-yl]ethyl]amino]pyridine-2-carboxylic acid] |  | 

Row | Structure (SMILES) | pIC50 ([1]; Soy PI lipid substrate) | pIC50 ([2]; Soy PI lipid substrate) | pIC50 [3] | pIC50 [1, 4] | pIC50 [2, 4]
15 | Cc1cc(C(C)Nc2ccc(Cl)nc2C(=O)O)c2oc(-c3ccc4cc[nH]c4n3)cc(=O)c2c1 (single isomer, unassigned) [Example 215, 6-Chloro-3-[1-[6-methyl-4-oxo-2-(1H-pyrrolo[2,3-b]pyridin-6-yl)chromen-8-yl]ethylamino]pyridine-2-carboxylic acid] | 6.00 to 6.30 | > 6.30 | > 7.30 |  | 
16 | Cc1cc(C(C)Nc2ccc(Cl)nc2C(=O)O)c2oc(-c3ccc4cc[nH]c4n3)cc(=O)c2c1 (single isomer, unassigned) [Example 216, 6-Chloro-3-[1-[6-methyl-4-oxo-2-(1H-pyrrolo[2,3-b]pyridin-6-yl)chromen-8-yl]ethylamino]pyridine-2-carboxylic acid] | < 5.00 | 5.30 to 6.00 | < 6.30 |  | 
17 | Cc1cc(C(C)Nc2ccccc2C(=O)O)c2oc(-c3cc4ccncc4o3)cc(=O)c2c1 (stereo not drawn) [Example 7, 2-[1-(2-Furo[2,3-c]pyridin-2-yl-6-methyl-4-oxo-chromen-8-yl)ethylamino]benzoic acid] |  |  | 7.00 to 7.30 | > 6.30 | > 6.30
18 | Cc1cc(C(C)Nc2ccccc2C(=O)O)c2oc(-c3ccc4cc[nH]c4c3)cc(=O)c2c1 (stereo not drawn) [Example 18, 2-[1-[2-(1H-Indol-6-yl)-6-methyl-4-oxo-chromen-8-yl]ethylamino]benzoic acid] | 5.30 to 6.00 | > 6.30 | 6.30 to 7.00 |  | 
19 | Cc1cc(C(C)Nc2ccc(Cl)nc2C(=O)O)c2oc(-c3ccc4cc[nH]c4n3)cc(=O)c2c1 (stereo not drawn) [Example 195, 6-Chloro-3-[1-[6-methyl-4-oxo-2-(1H-pyrrolo[2,3-b]pyridin-6-yl)chromen-8-yl]ethylamino]pyridine-2-carboxylic acid] | 6.00 to 6.30 | > 6.30 | > 7.30 |  | 
20 | Cc1cc([C@@H](C)Nc2ccc(Cl)nc2C(=O)O)c2oc(-c3cc4ccccc4[nH]3)c(C)c(=O)c2c1 [Example 196, 6-Chloro-3-[[(1R)-1-[2-(1H-indol-2-yl)-3,6-dimethyl-4-oxo-chromen-8-yl]ethyl]amino]pyridine-2-carboxylic acid] | 5.30 to 6.00 | > 6.30 | > 7.30 |  | 
21 | Cc1cc([C@@H](C)Nc2cccc(F)c2C(=O)O)c2oc(-c3ccc4c(cnn4C)c3)cc(=O)c2c1 [Example 197, 2-Fluoro-6-[[(1R)-1-[6-methyl-2-(1-methylindazol-5-yl)-4-oxo-chromen-8-yl]ethyl]amino]benzoic acid] | 6.00 to 6.30 | > 6.30 | > 7.30 |  | 
22 | Cc1cc([C@@H](C)Nc2ccccc2C(=O)O)c2oc(-c3cc(C(F)(F)F)c4nn(C)cc4c3)cc(=O)c2c1 [Example 198, 2-[[(1R)-1-[6-Methyl-2-[2-methyl-7-(trifluoromethyl)indazol-5-yl]-4-oxo-chromen-8-yl]ethyl]amino]benzoic acid] | > 6.30 | > 6.30 | 7.00 to 7.30 |  | 
23 | Cc1cc([C@@H](C)Nc2ccccc2C(=O)O)c2oc(-c3cc4cnccc4s3)c(C)c(=O)c2c1 [Example 203, 2-[[(1R)-1-(3,6-Dimethyl-4-oxo-2-thieno[3,2-c]pyridin-2-yl-chromen-8-yl)ethyl]amino]benzoic acid] | > 6.30 | > 6.30 | > 7.30 |  | 
24 | Cc1cc([C@@H](C)Nc2ccccc2C(=O)O)c2oc(-c3cc4cnccc4o3)c(C(F)(F)F)c(=O)c2c1 [Example 209, 2-[[(1R)-1-[2-Furo[3,2-c]pyridin-2-yl-6-methyl-4-oxo-3-(trifluoromethyl)chromen-8-yl]ethyl]amino]benzoic acid] | 6.00 to 6.30 | > 6.30 | > 7.30 |  | 
25 | Cc1cc([C@@H](C)Nc2ccccc2C(=O)O)c2oc(-c3ccc4nn(Cc5ccccc5)cc4c3)c(C)c(=O)c2c1 [Example 210, 2-[[(1R)-1-[2-(2-Benzylindazol-5-yl)-3,6-dimethyl-4-oxo-chromen-8-yl]ethyl]amino]benzoic acid] | 6.00 to 6.30 | > 6.30 | > 7.30 |  | 
